The target in the assay is phosphotriesterase from Sphingobium sp. TCM1 (Sb-PTE) (Sphingobium sp. TCM1, UniProt A0A077JBW9). The experiment in a line: steady-state kinetics, release of p-nitrophenol. The assay is classed as biochemical. As to conditions: 50 mM HEPES/K+, pH 8.5, 30 °C; only aryl ester hydrolysis followed.

Our source for the Km values is paper PMC5938755 (Biochemistry, 2018).

In the case of `CCOP(=O)(OCC)Oc1ccc([N+](=O)[O-])cc1` [compound 11, paraoxon], the Michaelis constant (Km) worked out at 83 ± 9 µM.

For `COP(=O)(OC)Oc1ccc([N+](=O)[O-])cc1` [compound 3, dimethyl p-nitrophenyl phosphate], the Michaelis-Menten constant (Km) was 760 ± 50 µM.

Usually Km stands for the substrate concentration at which the rate is half of its maximum.
